Reference: DBAASP
Converted amounts (≈) assume the structure as drawn.

Tests used:
Assay in all cases: ≥ marks a high value that may be exact or a test limit, other limits are often not marked, values filed in µg/mL are converted to µM
[1] = test system: Candida tropicalis ATCC 13803
Candida albicans SC5314 = test system: Candida albicans SC5314
Candida krusei ATCC 6258 = test system: Candida krusei ATCC 6258
[2] = test system: Candida parapsilosis ATCC 22019
[3] = test system: Escherichia coli MC4100 NR698
Saccharomyces cerevisiae = test system: Saccharomyces cerevisiae
[4] = test system: Staphylococcus epidermidis ATCC 35984
Cladosporium sp. = test system: Cladosporium sp.
[5] = test system: Pseudomonas aeruginosa ATCC 15692
[6] = test system: Staphylococcus epidermidis 5179-R1
[7] = test system: Pseudomonas aeruginosa ATCC 27853
[8] = test system: Candida albicans ATCC 10231
Aureobasidium pullulans = test system: Aureobasidium pullulans
[9] = test system: Bacillus subtilis ATCC 23857
[10] = test system: Staphylococcus aureus ATCC 9144
[11] = test system: Escherichia coli ATCC 25922
[12] = test system: Corynebacterium glutamicum ATCC 13032
[13] = test system: Listeria monocytogenes DSM 20600
Escherichia coli D31 = test system: Escherichia coli D31
[14] = test system: Micrococcus luteus DSM 20030
[15] = test system: Listeria fleischmannii DSM 24998
Listeria grayi DSM 20601 = test system: Listeria grayi DSM 20601
Streptococcus agalactiae = test system: Streptococcus agalactiae
[16] = test system: Streptococcus pneumoniae ATCC 49619
Klebsiella pneumoniae = test system: Klebsiella pneumoniae
Streptococcus mutans = test system: Streptococcus mutans
[17] = test system: Staphylococcus aureus ATCC 25923
[18] = test system: Mycobacterium tuberculosis mc2-6020
Streptococcus pyogenes = test system: Streptococcus pyogenes
[19] = test system: Mycobacterium tuberculosis mc2-6230
[20] = test system: Escherichia coli DH5alpha
[21] = test system: Klebsiella pneumoniae ATCC 700603
Bacillus subtilis PY79 = test system: Bacillus subtilis PY79
[22] = test system: Staphylococcus aureus ATCC 6538P
[23] = test system: Pseudomonas aeruginosa PA14
[24] = test system: Pseudomonas aeruginosa PAO1
[25] = test system: Staphylococcus aureus NCTC 8530
[26] = test system: Staphylococcus aureus ATCC 33592
Ascochyta pisi = test system: Ascochyta pisi
Aerococcus viridans = test system: Aerococcus viridans
Enterobacter cloacae = test system: Enterobacter cloacae
Neurospora crassa = test system: Neurospora crassa
Bacillus megaterium = test system: Bacillus megaterium
Escherichia coli D22 = test system: Escherichia coli D22
Fusarium haematococcum = test system: Fusarium haematococcum
Bacillus subtilis = test system: Bacillus subtilis
Pediococcus acidilactici = test system: Pediococcus acidilactici
Trichoderma viride = test system: Trichoderma viride
Micrococcus luteus = test system: Micrococcus luteus
Fusarium culmorum = test system: Fusarium culmorum
Alternaria brassicicola = test system: Alternaria brassicicola
Botrytis cinerea = test system: Botrytis cinerea
[27] = test system: Pectobacterium carotovorum

How did the MIC [1] turn out when `NCCCC[C@H](NC(=O)[C@H](Cc1ccc(O)cc1)NC(=O)[C@H](CCCCN)NC(=O)[C@@H](N)CS)C(=O)N[C@@H](Cc1c[nH]c2ccccc12)C(=O)N[C@@H](CCCN=C(N)N)C(=O)O` [CKYKWR] was run?
The MIC was ≥ 56.6 µM.

What about the MIC (Candida albicans SC5314) of the same compound?
The MIC was ≥ 113 µM.

And the MIC (Candida krusei ATCC 6258)?
The MIC was ≥ 113 µM.

What about the MIC [2] of the same compound?
Its MIC is ≥ 113 µM.

Which results are given for `CC[C@H](C)[C@H](NC(=O)[C@@H](N)CC(=O)O)C(=O)NCC(=O)N[C@@H](CCCCN)C(=O)N[C@@H](Cc1ccc(O)cc1)C(=O)N[C@@H](CS)C(=O)NCC(=O)N[C@@H](Cc1ccc(O)cc1)C(=O)N[C@@H](C)C(=O)N[C@@H](Cc1cnc[nH]1)C(=O)N[C@@H](C)C(=O)N[C@@H](CC(C)C)C(=O)N[C@@H](CC(N)=O)C(N)=O` [DIGKYCGYAHALN]?
MIC [3]: ≥ 100 µM; MIC (Saccharomyces cerevisiae): ≥ 100 µM; MIC [4]: ≥ 100 µM; MIC (Cladosporium sp.): ≥ 100 µM; MIC [5]: ≥ 100 µM; MIC [6]: ≥ 100 µM; MIC [7]: > 100 µM; MIC [8]: > 100 µM; MIC (Aureobasidium pullulans): ≥ 100 µM; MIC [9]: ≥ 100 µM; MIC [10]: ≥ 100 µM; MIC [11]: > 100 µM; MIC [12]: ≥ 100 µM

`CC[C@H](C)[C@H](N)C(=O)N[C@@H](Cc1ccccc1)C(=O)NCC(=O)N[C@@H](C)C(=O)N[C@H](C(=O)N[C@@H](Cc1c[nH]c2ccccc12)C(=O)N[C@@H](CO)C(=O)NCC(=O)N[C@H](C(=O)N[C@@H](CCCCN)C(=O)N[C@@H](CO)C(=O)N[C@@H](CC(C)C)C(=O)N[C@@H](Cc1ccccc1)C(N)=O)[C@@H](C)CC)[C@@H](C)CC` [IFGAIWSGIKSLF] was tested. Which MIC [13] did it give?
Its MIC is 4 µM (≈ 5.75 µg/mL).

And the MIC (Escherichia coli D31)?
Its MIC is 8 µM (≈ 11.5 µg/mL).

And the MIC [14]?
The MIC was 4 µM (≈ 5.75 µg/mL).

What about the MIC [15] of the same compound?
The MIC was 4 µM (≈ 5.75 µg/mL).

What about the MIC (Listeria grayi DSM 20601) of the same compound?
The MIC was 8 µM (≈ 11.5 µg/mL).

Which MIC (Streptococcus agalactiae) does the source give for `CC[C@H](C)[C@H](N)C(=O)N[C@@H](CCCN=C(N)N)C(=O)N[C@@H](CCCCN)C(=O)N[C@@H](CC(C)C)C(=O)N[C@@H](CCCCN)C(=O)N[C@@H](CO)C(=O)N[C@@H](Cc1c[nH]c2ccccc12)C(=O)N[C@@H](CCCCN)C(=O)N[C@@H](Cc1c[nH]c2ccccc12)C(=O)N[C@@H](CC(C)C)C(=O)N[C@@H](CCCN=C(N)N)C(=O)N[C@@H](Cc1c[nH]c2ccccc12)C(=O)N[C@@H](CC(C)C)C(=O)O` [IRKLKSWKWLRWL] here?
Its MIC is ≥ 32 µM.

And the MIC [16]?
The MIC was ≥ 32 µM.

What about the MIC (Klebsiella pneumoniae) of the same compound?
Its MIC is 136 µM (≈ 247 µg/mL).

And the MIC [7]?
Its MIC is 68 µM (≈ 123 µg/mL).

What about the MIC (Streptococcus mutans) of the same compound?
Its MIC is 8 µM (≈ 14.5 µg/mL).

What about the MIC [17] of the same compound?
The MIC was 32 µM (≈ 58 µg/mL).

And the MIC [18]?
The MIC was 16 µM (≈ 29 µg/mL).

And the MIC (Streptococcus pyogenes)?
The MIC was 4 µM (≈ 7.25 µg/mL).

What about the MIC [19] of the same compound?
The MIC was ≥ 68 µM.

What about the MIC [11] of the same compound?
Its MIC is 16 µM (≈ 29 µg/mL).

`CC(C)C[C@H](NC(=O)[C@H](CCCN=C(N)N)NC(=O)[C@@H](NC(=O)[C@H](CCCN=C(N)N)NC(=O)[C@@H](N)CC(C)C)C(C)C)C(=O)N[C@@H](C)C(=O)N[C@@H](CO)C(=O)N[C@@H](Cc1cnc[nH]1)C(=O)N[C@@H](CC(C)C)C(=O)N[C@@H](CCCN=C(N)N)C(=O)N[C@@H](CCCCN)C(=O)N[C@@H](CC(C)C)C(=O)N[C@@H](CCCN=C(N)N)C(=O)N[C@@H](CCCCN)C(=O)N[C@@H](CCCN=C(N)N)C(=O)N[C@@H](CC(C)C)C(=O)N[C@@H](CC(C)C)C(=O)N[C@@H](CCCN=C(N)N)C(=O)O` [LRVRLASHLRKLRKRLLR] was tested. Which MIC [20] did it give?
The MIC was 12.5 µM (≈ 28.6 µg/mL).

What about the MIC [21] of the same compound?
Its MIC is 6.25 µM (≈ 14.3 µg/mL).

What about the MIC (Bacillus subtilis PY79) of the same compound?
Its MIC is 25 µM (≈ 57.1 µg/mL).

What about the MIC [22] of the same compound?
The MIC was 3.12 µM (≈ 7.13 µg/mL).

What about the MIC [23] of the same compound?
Its MIC is ≥ 50 µM.

And the MIC [24]?
Its MIC is 25 µM (≈ 57.1 µg/mL).

What about the MIC [11] of the same compound?
Its MIC is 6.25 µM (≈ 14.3 µg/mL).

Which results are given for `CC[C@H](C)[C@H](NC(=O)[C@H](Cc1ccccc1)NC(=O)[C@H](CC(C)C)NC(=O)[C@H](CCCN=C(N)N)NC(=O)[C@@H](NC(=O)[C@H](CCCCN)NC(=O)[C@@H](NC(=O)[C@H](CC(C)C)NC(=O)[C@@H](N)C(C)C)[C@@H](C)CC)[C@@H](C)O)C(=O)N[C@@H](CCCCN)C(=O)N[C@@H](CCCN=C(N)N)C(=O)N[C@@H](CCCCN)C(=O)O` [VLIKTRLFIKRK]?
MIC [7]: 8 µM (≈ 12.1 µg/mL); MIC [25]: 8 µM (≈ 12.1 µg/mL); MIC [26]: 4 µM (≈ 6.06 µg/mL)

With `CC[C@H](C)[C@H](NC(=O)[C@@H](NC(=O)[C@@H]1CCCN1C(=O)[C@@H](N)C(C)C)[C@@H](C)CC)C(=O)N[C@@H](Cc1ccc(O)cc1)C(=O)N[C@H]1CSSC[C@@H](C(=O)N[C@@H](CCC(N)=O)C(=O)N[C@@H](CCCN=C(N)N)C(=O)N[C@@H](CCSC)C(=O)O)NC(=O)[C@H](CCCCN)NC(=O)CNC(=O)[C@H]([C@@H](C)O)NC(=O)[C@H](CCCN=C(N)N)NC(=O)[C@H](CCCN=C(N)N)NC(=O)[C@H](CC(N)=O)NC1=O` [VPIIYCNRRTGKCQRM] as the compound, how does the MIC (Ascochyta pisi) read?
The MIC was 28.3 µM (≈ 54.8 µg/mL).

What about the MIC (Aerococcus viridans) of the same compound?
Its MIC is 1.73 µM (≈ 3.35 µg/mL).

And the MIC (Enterobacter cloacae)?
The MIC was 7.07 µM (≈ 13.7 µg/mL).

And the MIC (Neurospora crassa)?
Its MIC is 14.1 µM (≈ 27.4 µg/mL).

What about the MIC (Bacillus megaterium) of the same compound?
The MIC was 7.07 µM (≈ 13.7 µg/mL).

And the MIC (Escherichia coli D22)?
The MIC was 0.849 µM (≈ 1.64 µg/mL).

And the MIC (Klebsiella pneumoniae)?
Its MIC is 3.54 µM (≈ 6.85 µg/mL).

And the MIC (Fusarium haematococcum)?
The MIC was 7.07 µM (≈ 13.7 µg/mL).

What about the MIC (Bacillus subtilis) of the same compound?
The MIC was 28.3 µM (≈ 54.8 µg/mL).

And the MIC (Escherichia coli D31)?
The MIC was 0.849 µM (≈ 1.64 µg/mL).

And the MIC (Pediococcus acidilactici)?
Its MIC is 28.3 µM (≈ 54.8 µg/mL).

What about the MIC (Trichoderma viride) of the same compound?
Its MIC is 28.3 µM (≈ 54.8 µg/mL).

What about the MIC (Micrococcus luteus) of the same compound?
Its MIC is 3.54 µM (≈ 6.85 µg/mL).

What about the MIC (Fusarium culmorum) of the same compound?
Its MIC is 14.1 µM (≈ 27.4 µg/mL).

And the MIC (Alternaria brassicicola)?
The MIC was 7.07 µM (≈ 13.7 µg/mL).

What about the MIC (Botrytis cinerea) of the same compound?
The MIC was 14.1 µM (≈ 27.4 µg/mL).

And the MIC [27]?
Its MIC is 28.3 µM (≈ 54.8 µg/mL).
